Measured values published in PubChem BioAssay (NCI).
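Exposure lasted 48 hours, with cells grown in 96-well plates and compounds tested at five concentrations. GI50 = concentration required for 50% inhibition of growth. TGI denotes the concentration required for complete inhibition of growth.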

Tests used:
Experiment in all cases: NCI tumour cell line growth inhibition, 48 h
[1] = test system: SN12C renal
[2] = test system: LOX IMVI melanoma
[3] = test system: NCI/ADR-RES ovarian
[4] = test system: UACC-62 melanoma
[5] = test system: K-562 leukemia
[6] = test system: HL-60(TB) leukemia
[7] = test system: A498 renal
[8] = test system: MDA-MB-435
[9] = test system: HT29 colon
[10] = test system: ACHN renal
[11] = test system: OVCAR-3 ovarian
[12] = test system: SF-539 CNS
[13] = test system: SK-OV-3 ovarian
[14] = test system: UACC-257 melanoma
[15] = test system: MDA-MB-231 breast
[16] = test system: DU-145 prostate
[17] = test system: OVCAR-4 ovarian
[18] = test system: SF-295 CNS
[19] = test system: A549 NSCLC
[20] = test system: SK-MEL-28 melanoma
[21] = test system: COLO 205 colon
[22] = test system: NCI-H226 lung
[23] = test system: UO-31 renal
[24] = test system: U251 CNS
[25] = test system: NCI-H460 lung
[26] = test system: MALME-3M melanoma
[27] = test system: NCI-H23 lung
[28] = test system: MOLT-4 leukemia
[29] = test system: HS 578T breast
[30] = test system: SNB-75 CNS
[31] = test system: HOP-62 NSCLC
[32] = test system: RXF 393 renal
[33] = test system: T-47D breast
[34] = test system: NCI-H522 lung
[35] = test system: 786-0 renal
[36] = test system: OVCAR-8 ovarian
[37] = test system: EKVX NSCLC
[38] = test system: IGROV1 ovarian
[39] = test system: SK-MEL-2 melanoma
[40] = test system: HCT-116 colon
[41] = test system: SW-620 colon
[42] = test system: SNB-19 CNS
[43] = test system: BT-549 breast
[44] = test system: HCT-15 colon
[45] = test system: HCC-2998 colon
[46] = test system: CAKI-1 renal
[47] = test system: SK-MEL-5 melanoma
[48] = test system: M14 melanoma
[49] = test system: SF-268 CNS
[50] = test system: MCF7 breast
[51] = test system: PC-3 prostate
[52] = test system: KM12 colon
[53] = test system: HOP-92 NSCLC
[54] = test system: TK-10 renal
[55] = test system: OVCAR-5 ovarian

Cc1cc(CCC(=O)NCCNc2c3ccccc3nc3ccccc23)cc(C)c1O[Si](C)(C)C(C)(C)C
TGI [1]: 28.8 µM | TGI [2]: 0.29 µM | TGI [3]: 4.44 µM | TGI [4]: 27.6 µM | TGI [5]: 0.826 µM | TGI [6]: 3.16 µM | TGI [7]: 2.02 µM | TGI [8]: 1.04 µM | TGI [9]: 1.71 µM | TGI [10]: 3.05 µM | TGI [11]: 3.57 µM | TGI [12]: 0.377 µM | TGI [13]: 3.01 µM | TGI [14]: 3.51 µM | TGI [15]: 25.8 µM | TGI [16]: 2.63 µM | TGI [17]: 2.67 µM | TGI [18]: 2.27 µM | TGI [19]: 1.99 µM | TGI [20]: 3.37 µM | TGI [21]: 2.23 µM | TGI [22]: 33.4 µM

O=C(Nc1ccncc1)C(=O)c1cn(S(=O)(=O)c2cccc(Cl)c2)c2ccccc12
GI50 [1]: 13 µM | TGI [1]: > 100 µM | GI50 [23]: 11.7 µM | TGI [23]: > 100 µM | GI50 [24]: 5.78 µM | TGI [24]: > 100 µM | GI50 [25]: 20 µM | TGI [25]: > 100 µM | GI50 [2]: 4.72 µM | TGI [2]: > 100 µM | GI50 [26]: 18.7 µM | TGI [26]: > 100 µM | GI50 [3]: 2.86 µM | TGI [3]: > 100 µM | GI50 [27]: 4.65 µM | TGI [27]: > 100 µM | GI50 [28]: 5.55 µM | TGI [28]: > 100 µM | GI50 [29]: 77.1 µM | TGI [29]: > 100 µM | GI50 [4]: 5.81 µM | TGI [4]: > 100 µM | GI50 [30]: 5.16 µM | TGI [30]: 23.2 µM | GI50 [31]: 7.26 µM | TGI [31]: 48.1 µM | GI50 [32]: 4.34 µM | TGI [32]: 21.2 µM | GI50 [5]: 2.5 µM | TGI [5]: > 100 µM | GI50 [6]: 3.94 µM | TGI [6]: > 100 µM | GI50 [33]: 9.08 µM | TGI [33]: > 100 µM | GI50 [7]: 25.4 µM | TGI [7]: > 100 µM | GI50 [34]: 2.41 µM | TGI [34]: 16.9 µM | GI50 [9]: 3.62 µM | TGI [9]: > 100 µM | GI50 [10]: 7.58 µM | TGI [10]: 57.1 µM | GI50 [11]: 4.12 µM | TGI [11]: 23.4 µM | GI50 [35]: 7.94 µM | TGI [35]: 43.6 µM | GI50 [36]: 7.98 µM | TGI [36]: > 100 µM | GI50 [37]: 5.16 µM | TGI [37]: > 100 µM | GI50 [12]: 4.61 µM | TGI [12]: 43.9 µM | GI50 [13]: 30.2 µM | TGI [13]: > 100 µM | GI50 [38]: 24.1 µM | TGI [38]: > 100 µM | GI50 [39]: 11 µM | TGI [39]: > 100 µM | GI50 [40]: 3.1 µM | TGI [40]: 86.8 µM | GI50 [14]: 24.7 µM | TGI [14]: > 100 µM | GI50 [41]: 4.74 µM | TGI [41]: > 100 µM | GI50 [15]: 10.6 µM | TGI [15]: 43.9 µM | GI50 [16]: 10.9 µM | TGI [16]: > 100 µM | GI50 [42]: 27.5 µM | TGI [42]: > 100 µM | GI50 [43]: 5.85 µM | TGI [43]: 38.3 µM | GI50 [44]: 3.24 µM | TGI [44]: > 100 µM | GI50 [45]: 13.9 µM | TGI [45]: > 100 µM | GI50 [46]: 3.38 µM | TGI [46]: 39.9 µM | GI50 [47]: 3.61 µM | TGI [47]: 39.5 µM | GI50 [48]: 4.09 µM | TGI [48]: 32.6 µM | GI50 [17]: 7.51 µM | TGI [17]: > 100 µM | GI50 [18]: 2.92 µM | TGI [18]: 37.1 µM | GI50 [49]: 8.36 µM | TGI [49]: > 100 µM | GI50 [19]: 22.4 µM | TGI [19]: > 100 µM | GI50 [20]: 10.2 µM | TGI [20]: 60.1 µM | GI50 [50]: 3.63 µM | TGI [50]: > 100 µM | GI50 [51]: 11.8 µM | TGI [51]: > 100 µM | GI50 [52]: 3.96 µM | TGI [52]: > 100 µM | GI50 [53]: 3.31 µM | TGI [53]: 23.1 µM | GI50 [21]: 24.8 µM | TGI [21]: 70.3 µM | GI50 [54]: 23.5 µM | TGI [54]: 75.9 µM | GI50 [22]: 13.6 µM | TGI [22]: > 100 µM | GI50 [55]: 11.5 µM | TGI [55]: > 100 µM
